ChEMBL document CHEMBL2069252, “Pyrazole diaminopyrimidines as dual inhibitors of KDR and Aurora B kinases” (Bioorg Med Chem Lett, 2012)
Values after ≈ are worked out from the molar mass of the structure shown. Active and inactive are the calls of the source. The rule behind the calls is not given here.

Tests used:
[1] = target: T1, Vascular endothelial growth factor receptor 2 (Homo sapiens, UniProt P35968); test: Inhibition of human KDR autophosphorylation expressed in mouse NIH/3T3 cells; format: cell-based, NIH3T3
Aurora kinase B = Aurora kinase B (Homo sapiens, UniProt Q96GD4); test: Inhibition of Aurora B kinase by HTRF analysis in presence of 1 mM ATP
[2] = target: T1, Vascular endothelial growth factor receptor 2; test: Inhibition of KDR by HTRF analysis in presence of 1 mM ATP
NCI-H1299 = test: Cell cycle arrest in human NCI-H1299 cells assessed as induction of polyploidy after 48 hrs by Hoechst staining-based fluorescence microscopic analysis; format: functional; conditions: NCI-H1299, 48 h
[3] = Metabolic stability of the compound in mouse liver microsomes assessed as compound remaining after 30 mins; format: ADME, Microsome; conditions: read-out: Stability
[4] = Aqueous solubility of the compound at pH 7.4 after 24 hrs by chemiluminescent nitrogen detection; format: physicochemical
Mus musculus [5] = test: Toxicity in mouse xenografted with human DOHH2 cells assessed as mortality at 10 mg/kg, ip administered Q7d for 3 weeks; conditions: in vivo, 504 h
DOHH-2 = conditions: Homo sapiens
Description: Antitumor activity against human DOHH2 cells xenografted in mouse tumor model assessed as tumor growth inhibition at 10 mg/kg, ip administered Q7d for 3 weeks

Mus musculus [6] = test: Toxicity in mouse xenografted with human DOHH2 cells assessed as weight loss at 10 mg/kg, ip administered Q7d for 3 weeks; conditions: in vivo, 504 h
[7] = AUC in CD1(ICR) mouse at 10 mg/kg, ip; format: ADME, organism-based; set-up: dose 10 mg/kg, route intraperitoneal; conditions: plasma

T1 sequence (P35968 whole entry): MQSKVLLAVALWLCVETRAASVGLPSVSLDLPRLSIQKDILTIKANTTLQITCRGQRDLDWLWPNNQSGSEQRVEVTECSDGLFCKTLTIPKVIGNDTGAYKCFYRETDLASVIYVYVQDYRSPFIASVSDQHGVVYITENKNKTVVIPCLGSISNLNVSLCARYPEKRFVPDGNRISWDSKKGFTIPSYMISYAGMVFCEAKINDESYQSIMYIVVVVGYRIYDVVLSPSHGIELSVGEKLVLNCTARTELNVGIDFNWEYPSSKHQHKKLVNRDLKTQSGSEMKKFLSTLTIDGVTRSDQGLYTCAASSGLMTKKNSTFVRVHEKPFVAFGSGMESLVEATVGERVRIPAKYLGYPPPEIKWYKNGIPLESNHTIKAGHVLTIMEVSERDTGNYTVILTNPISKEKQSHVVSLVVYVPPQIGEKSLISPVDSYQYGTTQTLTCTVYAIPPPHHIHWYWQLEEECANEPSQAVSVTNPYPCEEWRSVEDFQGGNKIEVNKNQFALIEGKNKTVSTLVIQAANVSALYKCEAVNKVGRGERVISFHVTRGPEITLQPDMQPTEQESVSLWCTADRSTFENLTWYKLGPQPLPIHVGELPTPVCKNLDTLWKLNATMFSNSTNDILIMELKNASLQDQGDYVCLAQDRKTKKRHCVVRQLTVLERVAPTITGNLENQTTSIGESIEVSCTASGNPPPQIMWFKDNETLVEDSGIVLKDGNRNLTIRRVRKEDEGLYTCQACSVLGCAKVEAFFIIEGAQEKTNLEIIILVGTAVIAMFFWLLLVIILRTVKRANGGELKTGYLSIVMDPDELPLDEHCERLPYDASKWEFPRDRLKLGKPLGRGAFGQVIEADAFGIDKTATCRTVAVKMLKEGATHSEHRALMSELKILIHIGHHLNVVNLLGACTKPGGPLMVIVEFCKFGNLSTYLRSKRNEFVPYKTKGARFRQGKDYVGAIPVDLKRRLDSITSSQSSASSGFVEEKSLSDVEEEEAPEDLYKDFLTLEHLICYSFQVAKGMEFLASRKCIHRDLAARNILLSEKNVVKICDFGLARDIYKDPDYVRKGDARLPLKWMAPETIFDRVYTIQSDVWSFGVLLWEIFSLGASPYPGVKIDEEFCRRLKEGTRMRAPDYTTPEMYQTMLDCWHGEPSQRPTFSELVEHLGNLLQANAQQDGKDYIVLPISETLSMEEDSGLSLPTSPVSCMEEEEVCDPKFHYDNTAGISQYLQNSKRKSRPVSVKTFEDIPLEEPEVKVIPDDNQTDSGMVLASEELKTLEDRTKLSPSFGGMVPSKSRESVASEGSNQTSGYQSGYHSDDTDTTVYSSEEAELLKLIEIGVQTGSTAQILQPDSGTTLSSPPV
Aurora kinase B, sequence (Q96GD4 whole entry): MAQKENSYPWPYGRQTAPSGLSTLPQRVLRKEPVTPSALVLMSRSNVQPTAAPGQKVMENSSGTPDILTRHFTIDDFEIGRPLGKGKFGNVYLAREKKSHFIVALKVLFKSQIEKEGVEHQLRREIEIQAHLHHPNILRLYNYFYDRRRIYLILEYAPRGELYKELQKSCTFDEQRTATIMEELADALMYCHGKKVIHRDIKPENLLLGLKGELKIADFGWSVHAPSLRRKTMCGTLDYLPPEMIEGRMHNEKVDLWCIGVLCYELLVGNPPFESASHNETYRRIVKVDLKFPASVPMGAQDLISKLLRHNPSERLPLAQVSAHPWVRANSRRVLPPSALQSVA

| SMILES | IC50 [1] | IC50 (Aurora kinase B) | IC50 [2] | EC15 (NCI-H1299) | remaining at 0.5 h [3] | solubility at 24 h [4] | Activity (Mus musculus [5]) | TGI (DOHH-2) | Activity (Mus musculus [6]) | AUC [7] |
| --- | --- | --- | --- | --- | --- | --- | --- | --- | --- | --- |
| Cn1cc(Nc2ncc(Cl)c(N[C@H]3[C@H]4CC[C@H](C4)[C@H]3C(N)=O)n2)cn1 | > 316 nM | 31 nM | 19 nM | 15 nM | – | – | – | – | – | – |
| NC(=O)[C@@H]1[C@H](Nc2nc(Nc3cnn(CCN4CCOCC4)c3)ncc2Cl)[C@H]2C=C[C@@H]1C2 | 78 nM | 27 nM | 9 nM | < 3 nM | 4% | 85 µM (≈ 39 µg/mL) | – | – | – | – |
| Cn1cc(Nc2ncc(Cl)c(N[C@@H]3CCC[C@@H]3C(N)=O)n2)cn1 | – | 32 nM | 246 nM | 62 nM | – | – | – | – | – | – |
| Cn1cc(Nc2nccc(N[C@H]3[C@@H](C(N)=O)[C@@H]4C=C[C@H]3C4)n2)cn1 | – | 294 nM | > 12000 nM | 93 nM | – | – | – | – | – | – |
| Cn1cc(Nc2ncc(Cl)c(N[C@H]3[C@@H](C(N)=O)[C@@H]4CC[C@H]3O4)n2)cn1 | – | 118 nM | 693 nM | 132 nM | – | – | – | – | – | – |
| Cn1cc(Nc2ncc(Cl)c(N[C@H]3[C@@H](C(N)=O)[C@@H]4C=C[C@H]3C4)n2)cn1 | 20 nM | 29 nM | 14 nM | < 3 nM | 44% | 78 µM (≈ 28.1 µg/mL) | Toxic | Active | Toxic | 11.1 µM·h |
| Cn1cc(Nc2ncc(C(F)(F)F)c(N[C@H]3C[C@@H]4CC[C@H]3C4)n2)cn1 | – | 61 nM | 827 nM | > 300 nM | – | – | – | – | – | – |
| NC(=O)[C@@H]1[C@H](Nc2nc(Nc3cnn(C4CCNCC4)c3)ncc2Cl)[C@H]2C=C[C@@H]1C2 | 55 nM | 12 nM | 2 nM | 1 nM | 76% | 68 µM (≈ 29.2 µg/mL) | – | – | – | 2 µM·h |
| NC(=O)[C@@H]1[C@H](Nc2nc(Nc3cnn([C@@H]4CCCNC4)c3)ncc2Cl)[C@H]2C=C[C@@H]1C2 | 44 nM | 12 nM | 2 nM | 1 nM | 48% | 70 µM (≈ 30 µg/mL) | – | – | – | 15.7 µM·h |
| Cn1cc(Nc2ncc(C(F)(F)F)c(N[C@H]3[C@@H](C(=O)NCCO)[C@@H]4C=C[C@H]3C4)n2)cn1 | – | 99 nM | 266 nM | < 1 nM | – | – | – | – | – | – |
| NC(=O)[C@@H]1[C@H](Nc2nc(Nc3cnn(C[C@H]4CCCN4)c3)ncc2Cl)[C@H]2C=C[C@@H]1C2 | 49 nM | 15 nM | 15 nM | 11 nM | 48% | 86 µM (≈ 36.9 µg/mL) | – | – | – | 12.7 µM·h |
| CNC(=O)Cn1cc(Nc2ncc(Cl)c(N[C@H]3[C@@H](C(N)=O)[C@@H]4C=C[C@H]3C4)n2)cn1 | 89 nM | 26 nM | 6 nM | 11 nM | 88% | 72 µM (≈ 30 µg/mL) | – | – | – | 6.68 µM·h |
| Cn1cc(Nc2ncc(Cl)c(N[C@@H]3[C@H]4CC[C@H](C4)[C@@H]3C(N)=O)n2)cn1 | 84 nM | 8 nM | 19 nM | 1 nM | – | – | – | – | – | – |
| Cn1cc(Nc2ncc(C(N)=O)c(N[C@H]3[C@@H](C(N)=O)[C@@H]4C=C[C@H]3C4)n2)cn1 | – | 197 nM | 1540 nM | – | – | – | – | – | – | – |
| NC(=O)[C@@H]1[C@H](Nc2nc(Nc3cnn(CCO)c3)ncc2Cl)[C@H]2C=C[C@@H]1C2 | 48 nM | 19 nM | 6 nM | < 1 nM | 45% | 70 µM (≈ 27.3 µg/mL) | – | – | – | 5 µM·h |
| Cn1cc(Nc2ncc(Cl)c(N[C@@H]3CC[C@@H]3C(N)=O)n2)cn1 | – | 44 nM | 153 nM | 93 nM | – | – | – | – | – | – |
| Cn1cc(Nc2ncc(Cl)c(N[C@@H]3CCCC[C@@H]3C(N)=O)n2)cn1 | – | 135 nM | 169 nM | – | – | – | – | – | – | – |

| SMILES | IC50 [1] | IC50 (Aurora kinase B) | IC50 [2] | EC15 (NCI-H1299) | remaining at 0.5 h [3] | solubility at 24 h [4] | Activity (Mus musculus [5]) | TGI (DOHH-2) | Activity (Mus musculus [6]) | AUC [7] |
| --- | --- | --- | --- | --- | --- | --- | --- | --- | --- | --- |
| Cn1cc(Nc2ncc(C(F)(F)F)c(Nc3ccccc3C(N)=O)n2)cn1 | – | 16 nM | 431 nM | 11 nM | – | – | – | – | – | – |
| Cn1cc(Nc2ncc(F)c(N[C@H]3[C@@H](C(N)=O)[C@@H]4C=C[C@H]3C4)n2)cn1 | – | 29 nM | 329 nM | 111 nM | – | – | – | – | – | – |
| CNC(=O)[C@@H]1[C@H](Nc2nc(Nc3cnn(C)c3)ncc2C(F)(F)F)[C@H]2C=C[C@@H]1C2 | > 316 nM | 45 nM | 68 nM | < 1 nM | – | – | – | – | – | – |
| CCn1cc(Nc2ncc(Cl)c(N[C@H]3[C@@H](C(N)=O)[C@@H]4C=C[C@H]3C4)n2)cn1 | 8 nM | 8 nM | 3 nM | < 1 nM | 13% | 70 µM (≈ 26.2 µg/mL) | – | – | – | 2.54 µM·h |
| NC(=O)[C@@H]1[C@H](Nc2nc(Nc3cnn(CC(=O)O)c3)ncc2Cl)[C@H]2C=C[C@@H]1C2 | > 316 nM | 32 nM | 1 nM | 28 nM | > 95% | 71 µM (≈ 28.7 µg/mL) | – | – | – | – |
| Nc1ncc(-c2cnn(CCO)c2)c2scc(-c3ccc(NC(=O)Nc4cccc(F)c4)cc3)c12 [ILORASERTIB] | – | – | – | 12 nM | – | – | – | – | – | – |
| Cn1cc(Nc2ncc([N+](=O)[O-])c(N[C@H]3[C@@H](C(N)=O)[C@@H]4C=C[C@H]3C4)n2)cn1 | > 316 nM | 15 nM | 50 nM | 51 nM | – | – | – | – | – | – |
| Cn1cc(Nc2ncc(C(F)(F)F)c(N[C@H]3[C@@H](C(N)=O)C[C@H]4C[C@@H]3C4(C)C)n2)cn1 | – | 43 nM | 264 nM | 39 nM | – | – | – | – | – | – |
| Cn1cc(Nc2ncc(C(F)(F)F)c(N[C@H]3[C@@H](C(N)=O)[C@@H]4C=C[C@H]3C4)n2)cn1 | 35 nM | 28 nM | 12 nM | 3 nM | – | – | – | – | – | – |
| Cc1cc(Nc2ncc(F)c(N[C@H]3[C@@H](C(N)=O)[C@@H]4C=C[C@H]3C4)n2)ccc1N1CCN(C)CC1 | – | 54 nM | – | 1 nM | – | – | – | – | – | – |
| COc1cnc(Nc2cnn(C)c2)nc1N[C@H]1[C@@H](C(N)=O)[C@@H]2C=C[C@H]1C2 | – | 145 nM | 922 nM | – | – | – | – | – | – | – |
| Cc1cnc(Nc2cnn(C)c2)nc1N[C@H]1[C@@H](C(N)=O)[C@@H]2C=C[C@H]1C2 | – | 252 nM | 467 nM | 11 nM | – | – | – | – | – | – |
| Cn1cc(Nc2ncc(C(F)(F)F)c(N[C@@H]3[C@H]4CC[C@H](C4)[C@@H]3C(N)=O)n2)cn1 | 61 nM | 66 nM | 74 nM | 10 nM | – | – | – | – | – | – |
| NC(=O)[C@@H]1[C@H](Nc2nc(Nc3cnn(Cc4ccccc4)c3)ncc2Cl)[C@H]2C=C[C@@H]1C2 | 42 nM | 12 nM | 7 nM | < 1 nM | < 1% | 4 µM (≈ 1.74 µg/mL) | – | – | – | – |
| NC(=O)Cn1cc(Nc2ncc(Cl)c(N[C@H]3[C@@H](C(N)=O)[C@@H]4C=C[C@H]3C4)n2)cn1 | 167 nM | 25 nM | 18 nM | 19 nM | 68% | 68 µM (≈ 27.4 µg/mL) | – | – | – | 15 µM·h |
| Cn1cc(Nc2ncc(C(F)(F)F)c(N[C@H]3[C@@H](C(=O)NC4CC4)[C@@H]4C=C[C@H]3C4)n2)cn1 | – | 51 nM | 292 nM | < 1 nM | – | – | – | – | – | – |
